ChEMBL document CHEMBL6096672, “In Silico Enabled Discovery of KAI-11101, a Preclinical DLK Inhibitor for the Treatment of Neurodegenerative Disease and Neuronal Injury” (J Med Chem, 2025)
Converted amounts (≈) assume the structure as drawn. The source made the active and inactive calls. No cut-off for these calls is given here.

Columns and labels:
[1] = molecular target: Voltage-gated inwardly rectifying potassium channel KCNH2 (Homo sapiens, UniProt Q12809); assay: Inhibition of hERG by patch-clamp method; assay type: toxicity
[2] = Inhibition of GST-tagged DLK (1 to 520 residues)(unknown origin) using MKK4 as substrate preincubated for 60 mins followed by substrate/ATP addition measured after 30 mins by HTRF assay; parameters: species or system Homo sapiens
[3] = Inhibition of human DLK transfected in HEK293-T-REx cells assessed as decrease in JNK phosphorylation incubated for 5 hrs by HTRF assay; assay type: cell-based
[4] = Energy of neutralization, pKa of compound; assay type: physicochemical
[5] = Apparent permeability across apical to basal side in MDCK-MDR1 cells; assay type: ADME, cell-based, Canis lupus familiaris; details: dog
[6] = Ratio of unbound drug concentration in brain to plasma of mouse at 5 mg/kg; assay type: ADME, organism-based; details: brain and plasma, read-out: K(p,uu,brain)
[7] = molecular target: CYP3A4 (Homo sapiens, UniProt P08684); assay: Time dependent inhibition of CYP3A4 (unknown origin) at 30 uM incubated for 30 mins relative to control; assay type: ADME; details: read-out: TDI
[8] = Efflux ratio in MDCK-MDR1 cells; assay type: ADME, cell-based, Canis lupus familiaris; details: dog
[9] = Clearance in mouse at 5 mg/kg, po; assay type: ADME, organism-based; details: in vivo
[10] = Intrinsic clearance in mouse liver microsomes; assay type: ADME, Microsome; details: read-out: CLH
[11] = Intrinsic clearance in human liver microsomes; assay type: ADME, Microsome; details: read-out: CLH
[12] = Oral bioavailability in mouse at 5 mg/kg; assay type: ADME, organism-based; details: in vivo
[13] = Kinetic solubility of compound at pH 6.8; assay type: physicochemical; details: buffer, read-out: Kinetic_solubility
[14] = Half life in mouse at 5 mg/kg, po; assay type: ADME, organism-based; details: in vivo
[15] = Intrinsic clearance in dog liver microsomes; assay type: ADME, Canis lupus familiaris, Microsome; details: read-out: CLH
[16] = Protection against paclitaxel-induced axon degeneration in C57/Bl6 mouse DRG neurons at 0.74 uM measured after 72 hrs by immunofluorescence based analysis relative to control; assay type: functional; details: C57/Bl6, DRG neuron
[17] = Inhibition of DLK in C57/Bl6 mouse DRG neuron model of paclitaxel-induced axon degeneration assessed as decrease in p-cJun level measured after 20 hrs by immunofluorescence based analysis; assay type: cell-based
[18] = Protection against paclitaxel-induced axon degeneration in C57/Bl6 mouse DRG neurons measured after 72 hrs by immunofluorescence based analysis; assay type: functional, cell-based; details: drg neuron
[19] = Inhibition of GST-tagged LZK (1 to 966 residues)(unknown origin) using MKK4 as substrate preincubated for 60 mins followed by substrate/ATP addition measured after 30 mins by HTRF assay; parameters: species or system Homo sapiens
[20] = molecular target: T1, CYP3A (Homo sapiens, UniProt P08684+P20815+P24462+Q9HB55); assay: Binding affinity to CYP3A in human liver microsomes assessed as inactivation constant; assay type: ADME, Microsome
[21] = tested on: DRG neuron; assay: Protection against paclitaxel-induced axon degeneration in C57/Bl6 mouse DRG neurons at 1 uM measured after 72 hrs by immunofluorescence based analysis; assay type: functional, cell-based
[22] = molecular target: T1, CYP3A; assay: Binding affinity to CYP3A in human liver microsomes assessed as inhibition constant; assay type: ADME, Microsome

Sequence of Voltage-gated inwardly rectifying potassium channel KCNH2 (Q12809 whole entry, the tested form may be a part): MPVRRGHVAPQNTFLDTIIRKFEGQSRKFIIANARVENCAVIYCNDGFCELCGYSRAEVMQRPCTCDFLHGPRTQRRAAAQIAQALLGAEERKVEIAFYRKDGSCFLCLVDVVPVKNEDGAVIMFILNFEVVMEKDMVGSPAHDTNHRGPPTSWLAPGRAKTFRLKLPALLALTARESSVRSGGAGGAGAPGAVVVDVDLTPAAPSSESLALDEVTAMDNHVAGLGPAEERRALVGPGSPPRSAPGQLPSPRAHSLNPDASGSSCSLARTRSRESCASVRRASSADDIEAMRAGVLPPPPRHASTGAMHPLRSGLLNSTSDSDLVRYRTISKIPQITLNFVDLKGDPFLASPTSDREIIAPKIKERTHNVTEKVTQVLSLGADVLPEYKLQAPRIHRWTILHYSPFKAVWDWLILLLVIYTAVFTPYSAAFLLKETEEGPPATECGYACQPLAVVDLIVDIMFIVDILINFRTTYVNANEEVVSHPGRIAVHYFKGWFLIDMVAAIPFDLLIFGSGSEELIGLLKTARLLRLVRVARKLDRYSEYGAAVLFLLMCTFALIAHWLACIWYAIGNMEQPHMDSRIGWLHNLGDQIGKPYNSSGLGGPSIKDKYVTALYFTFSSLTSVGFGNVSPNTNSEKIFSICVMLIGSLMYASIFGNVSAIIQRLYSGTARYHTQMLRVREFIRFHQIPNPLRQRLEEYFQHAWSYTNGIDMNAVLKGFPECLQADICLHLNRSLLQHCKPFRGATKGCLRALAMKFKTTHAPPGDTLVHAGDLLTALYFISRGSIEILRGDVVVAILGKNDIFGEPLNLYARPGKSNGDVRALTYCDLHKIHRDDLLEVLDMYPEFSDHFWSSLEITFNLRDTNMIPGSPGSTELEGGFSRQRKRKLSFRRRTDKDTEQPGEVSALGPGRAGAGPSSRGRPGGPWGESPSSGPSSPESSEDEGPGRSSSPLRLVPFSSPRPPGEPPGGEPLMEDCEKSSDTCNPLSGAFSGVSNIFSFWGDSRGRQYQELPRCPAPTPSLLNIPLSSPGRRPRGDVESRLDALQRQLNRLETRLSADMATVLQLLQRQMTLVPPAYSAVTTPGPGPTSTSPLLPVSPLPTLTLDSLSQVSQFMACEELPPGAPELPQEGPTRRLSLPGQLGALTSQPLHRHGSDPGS
Sequence of CYP3A4 (P08684 whole entry): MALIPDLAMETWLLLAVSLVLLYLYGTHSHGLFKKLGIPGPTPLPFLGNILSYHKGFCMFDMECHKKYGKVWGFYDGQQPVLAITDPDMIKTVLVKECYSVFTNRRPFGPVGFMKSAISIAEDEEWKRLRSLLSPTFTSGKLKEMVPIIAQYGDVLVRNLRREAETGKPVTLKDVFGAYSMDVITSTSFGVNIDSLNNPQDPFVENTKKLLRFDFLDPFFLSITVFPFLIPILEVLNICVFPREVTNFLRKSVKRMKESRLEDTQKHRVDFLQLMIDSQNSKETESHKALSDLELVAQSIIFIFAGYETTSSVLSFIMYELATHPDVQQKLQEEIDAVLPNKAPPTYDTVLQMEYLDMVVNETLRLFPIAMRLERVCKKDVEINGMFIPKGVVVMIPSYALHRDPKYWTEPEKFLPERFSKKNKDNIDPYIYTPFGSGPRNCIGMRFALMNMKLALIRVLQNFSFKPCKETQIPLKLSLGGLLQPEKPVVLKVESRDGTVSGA

Compound | IC50 [1] | Ki [2] | IC50 [3] | pKa [4] | Papp A→B [5] | Kp uu [6] | efflux ratio [8] | microsomal CLint [10] | microsomal CLint [11] | solubility kinetic [13] | other results
CCc1nc(-c2cnc(N)c(C(F)(F)F)c2)c2ccc([C@H]3CN(C)CCO3)cn12 | 6900 nM | 2.5 nM | 100 nM | 6.8 | – | – | – | – | – | – | –
CCn1nc(-c2cnc(N)c(OC(F)(F)F)c2)c2ccc([C@H]3COCCN3C)cc21 | – | 1.2 nM | 103 nM | – | 24.1 ×10⁻⁶ cm/s | 0.42 | 0.4 | – | – | – | inhibition at 0.5 h, 30 µM [7]: 15%
CO[C@H](C)c1nc(-c2cnc(N)c(C(F)(F)F)c2)c2ccc(C3CCN(C)CC3)cn12 | 1300 nM | 1.2 nM | 54 nM | – | – | – | – | – | – | – | –
CCc1nc(-c2cnc(N)c(C(F)(F)F)c2)c2ccc(C3CCN(C)CC3)cn12 | < 400 nM | 0.3 nM | 23 nM | 9.2 | 10.6 ×10⁻⁶ cm/s | 0.18 | 1.6 | 15 µL/min/mg | 3 µL/min/mg | 268 µM (≈ 108 µg/mL) | CL/F [9]: 43 mL/min/kg; bioavailability [12]: 85%; half-life [14]: 228 min
CN1CCCC[C@H]1c1ccc2c(-c3cnc(N)c(C(F)(F)F)c3)ncn2c1 | 1100 nM | 4.3 nM | 90 nM | 8.1 | – | – | – | – | – | 73 µM (≈ 27.4 µg/mL) | –
CCn1nc(-c2cnc(N)c(OC(F)(F)F)c2)c2ccn([C@@H]3CCOC[C@@H]3OC)c(=O)c21 | – | 1.9 nM | 94 nM | – | – | 0.41 | – | 8.3 µL/min/mg | 14 µL/min/mg | – | microsomal CLint [15]: 96 µL/min/mg
CCc1nc(-c2cnc(N)c(C(F)(F)F)c2)c2ccc(C3CCOCC3)cn12 | – | – | – | – | 12.3 ×10⁻⁶ cm/s | – | 0.8 | 9 µL/min/mg | 27 µL/min/mg | 1 µM (≈ 0.39 µg/mL) | –
CCc1nc(-c2cnc(N)c(OC(F)(F)F)c2)c2ccc(C3(N4CCOCC4)CC3)cn12 | 17000 nM | 0.7 nM | 31 nM | 5.1 | – | – | – | – | – | – | –
CCc1nc(-c2cnc(N)c(OC(F)(F)F)c2)c2ccc([C@H]3COCC4(CC4)N3C)cn12 | 30000 nM | 1.2 nM | 104 nM | – | – | – | – | – | – | – | inhibition at 0.5 h, 30 µM [7]: 67%
CCc1nc(-c2cnc(N)c(C(F)(F)F)c2)c2ccc([C@H]3COCCN3C)cn12 | – | – | – | – | 16.2 ×10⁻⁶ cm/s | 0.17 | 1 | 20 µL/min/mg | 18 µL/min/mg | 320 µM (≈ 130 µg/mL) | CL/F [9]: 68 mL/min/kg; bioavailability [12]: 112%; half-life [14]: 36 min
CCn1nc(-c2cnc(N)c(OC(F)(F)F)c2)c2ccn([C@H]3CCOC[C@H]3OC3CC3)c(=O)c21 | – | 1.3 nM | 95 nM | – | – | 0.22 | – | 21 µL/min/mg | 12 µL/min/mg | – | microsomal CLint [15]: 21 µL/min/mg
CCc1nc(-c2cnc(N)c(C(F)(F)F)c2)c2ccc(C3(F)CCN(C)CC3)cn12 | 600 nM | 0.6 nM | 40 nM | 8.4 | – | – | – | – | – | – | –
CCc1nc(-c2cnc(N)c(OC(F)F)c2)c2ccc([C@H]3COCCN3C)cn12 | – | – | – | – | 30.1 ×10⁻⁶ cm/s | 0.14 | 0.8 | 17 µL/min/mg | 8 µL/min/mg | 284 µM (≈ 115 µg/mL) | CL/F [9]: 109 mL/min/kg; bioavailability [12]: 144%; half-life [14]: 18 min
CCc1nc(-c2cnc(N)c(C(F)(F)F)c2)c2ccc(CN3CCOCC3)cn12 | 2500 nM | 4.6 nM | 242 nM | 6.1 | – | – | – | – | – | – | –
CCn1nc(-c2cnc(N)c(OC(F)(F)F)c2)c2ccn([C@H]3CC4(CC4)OC[C@H]3OC)c(=O)c21 | – | 2.2 nM | 200 nM | – | – | – | – | 9.7 µL/min/mg | 3.2 µL/min/mg | – | microsomal CLint [15]: 5.4 µL/min/mg
Nc1ncc(-c2cc(N3C[C@@H]4C[C@H]3CO4)nc(N3CCC(F)(F)C3)n2)cc1OC(F)F [GDC-0134] | – | 3.5 nM | 79 nM | – | – | – | – | – | – | – | Emax at 0.74 µM [16]: 75%; IC50 [17]: 301 nM; EC50 [18]: 475 nM; Ki [19]: 7 nM
CCn1nc(-c2cnc(N)c(OC(F)(F)F)c2)c2ccn(C3CCOCC3)c(=O)c21 | – | 2.8 nM | 110 nM | – | 7.6 ×10⁻⁶ cm/s | 0.43 | 1 | 16 µL/min/mg | 8.8 µL/min/mg | – | inhibition at 0.5 h, 30 µM [7]: 18%
CCn1nc(-c2cnc(N)c(OC(F)(F)F)c2)c2ccn([C@H]3CCN(C)C[C@H]3OC(F)(F)F)c(=O)c21 | – | 1.1 nM | 130 nM | – | – | – | – | 66 µL/min/mg | 41 µL/min/mg | – | microsomal CLint [15]: 21 µL/min/mg
CCc1nc(-c2cnc(N)c(OC(F)(F)F)c2)c2ccc([C@H]3COCCN3C)cn12 | 16000 nM | 0.8 nM | 48 nM | 5.8 | 37.6 ×10⁻⁶ cm/s | 0.17 | 0.7 | 1 µL/min/mg | 6 µL/min/mg | 295 µM (≈ 124 µg/mL) | CL/F [9]: 40 mL/min/kg; bioavailability [12]: 141%; kinact [20]: 0.00113 s⁻¹; Activity [21]: Active; inhibition at 0.5 h, 30 µM [7]: 72%; EC50 [18]: 305 nM; half-life [14]: 48 min; Ki [22]: 12400 nM
